Laboratory results published in ChEMBL document CHEMBL3098130, “Discovery of Novel Putative Inhibitors of UDP-GlcNAc 2-Epimerase as Potent Antibacterial Agents” (ACS Med Chem Lett, 2013).

Columns and labels:
Type in all cases: functional
Details in all cases: read-out: GI
Bacillus anthracis [1] = experiment: Antibacterial activity against Bacillus anthracis Sterne assessed as growth inhibition at 3 uM measured every 2 mins for 16 to 20 hrs by spectramax 96-well plate reader analysis
Staphylococcus aureus [2] = experiment: Antibacterial activity against methicillin-resistant Staphylococcus aureus assessed as growth inhibition at 3 uM measured every 2 mins for 16 to 20 hrs by spectramax 96-well plate reader analysis
Staphylococcus aureus [3] = experiment: Antibacterial activity against methicillin-resistant Staphylococcus aureus assessed as growth inhibition at 30 uM measured every 2 mins for 16 to 20 hrs by spectramax 96-well plate reader analysis
Bacillus anthracis [4] = experiment: Antibacterial activity against Bacillus anthracis Sterne assessed as growth inhibition at 30 uM measured every 2 mins for 16 to 20 hrs by spectramax 96-well plate reader analysis
Bacillus anthracis [5] = experiment: Antibacterial activity against Bacillus anthracis Sterne assessed as growth inhibition at 10 uM measured every 2 mins for 16 to 20 hrs by spectramax 96-well plate reader analysis
Staphylococcus aureus [6] = experiment: Antibacterial activity against methicillin-resistant Staphylococcus aureus assessed as growth inhibition at 10 uM measured every 2 mins for 16 to 20 hrs by spectramax 96-well plate reader analysis

O=C(O)C(Cc1ccccc1)N1C(=O)/C(=C\c2ccc(-c3ccc(F)cc3)s2)NC1=S (stereo not drawn)
inhibition of growth at 3 µM (Bacillus anthracis [1]): 0% | inhibition of growth at 3 µM (Staphylococcus aureus [2]): 20% | inhibition of growth at 30 µM (Staphylococcus aureus [3]): 50% | inhibition of growth at 30 µM (Bacillus anthracis [4]): 100% | inhibition of growth at 10 µM (Bacillus anthracis [5]): 10% | inhibition of growth at 10 µM (Staphylococcus aureus [6]): 20%

CS(=O)(=O)NC(=O)C(Cc1ccccc1)N1C(=O)/C(=C\c2ccc(-c3ccc(Cl)c(Cl)c3)o2)NC1=S (stereo not drawn)
inhibition of growth at 3 µM (Bacillus anthracis [1]): 40% | inhibition of growth at 3 µM (Staphylococcus aureus [2]): 0% | inhibition of growth at 30 µM (Staphylococcus aureus [3]): 60% | inhibition of growth at 30 µM (Bacillus anthracis [4]): 90% | inhibition of growth at 10 µM (Bacillus anthracis [5]): 100% | inhibition of growth at 10 µM (Staphylococcus aureus [6]): 30%

CCC(C(=O)NS(C)(=O)=O)N1C(=O)/C(=C\c2ccc(-c3ccc(Cl)c(Cl)c3)o2)NC1=S (stereo not drawn)
inhibition of growth at 3 µM (Bacillus anthracis [1]): 10% | inhibition of growth at 3 µM (Staphylococcus aureus [2]): 0% | inhibition of growth at 30 µM (Staphylococcus aureus [3]): 0% | inhibition of growth at 30 µM (Bacillus anthracis [4]): 20% | inhibition of growth at 10 µM (Bacillus anthracis [5]): 0% | inhibition of growth at 10 µM (Staphylococcus aureus [6]): 0%

O=C(O)C(Cc1ccccc1)N1C(=O)/C(=C\c2ccc(-c3ccc(Br)c(Cl)c3)o2)NC1=S (stereo not drawn)
inhibition of growth at 3 µM (Bacillus anthracis [1]): 100% | inhibition of growth at 3 µM (Staphylococcus aureus [2]): 20% | inhibition of growth at 30 µM (Staphylococcus aureus [3]): 100% | inhibition of growth at 30 µM (Bacillus anthracis [4]): 100% | inhibition of growth at 10 µM (Bacillus anthracis [5]): 100% | inhibition of growth at 10 µM (Staphylococcus aureus [6]): 100%

O=C(O)C(Cc1ccccc1)N1C(=O)/C(=C\c2ccc(-c3ccc(Br)cc3)o2)NC1=S (stereo not drawn)
inhibition of growth at 3 µM (Bacillus anthracis [1]): 70% | inhibition of growth at 3 µM (Staphylococcus aureus [2]): 10% | inhibition of growth at 30 µM (Staphylococcus aureus [3]): 90% | inhibition of growth at 30 µM (Bacillus anthracis [4]): 100% | inhibition of growth at 10 µM (Bacillus anthracis [5]): 100% | inhibition of growth at 10 µM (Staphylococcus aureus [6]): 90%

O=C(O)C(Cc1ccccc1)N1C(=O)/C(=C\c2ccc(-c3ccc(Cl)cc3)s2)NC1=S (stereo not drawn)
inhibition of growth at 3 µM (Bacillus anthracis [1]): 0% | inhibition of growth at 3 µM (Staphylococcus aureus [2]): 0% | inhibition of growth at 30 µM (Staphylococcus aureus [3]): 90% | inhibition of growth at 30 µM (Bacillus anthracis [4]): 100% | inhibition of growth at 10 µM (Bacillus anthracis [5]): 100% | inhibition of growth at 10 µM (Staphylococcus aureus [6]): 0%

COc1ccc(-c2ccc(/C=C3/NC(=S)N(C(Cc4ccccc4)C(=O)O)C3=O)o2)cc1Cl (stereo not drawn)
inhibition of growth at 3 µM (Bacillus anthracis [1]): 0% | inhibition of growth at 3 µM (Staphylococcus aureus [2]): 10% | inhibition of growth at 30 µM (Staphylococcus aureus [3]): 80% | inhibition of growth at 30 µM (Bacillus anthracis [4]): 100% | inhibition of growth at 10 µM (Bacillus anthracis [5]): 30% | inhibition of growth at 10 µM (Staphylococcus aureus [6]): 10%

O=C1Nc2ccccc2/C1=C1/SC(=S)N(C(Cc2ccccc2)C(=O)O)C1=O (stereo not drawn)
inhibition of growth at 30 µM (Bacillus anthracis [4]): 99.7%

O=C(O)C(Cc1ccccc1)N1C(=O)/C(=C\c2ccc(-c3ccc(Br)cc3)s2)NC1=S (stereo not drawn)
inhibition of growth at 3 µM (Bacillus anthracis [1]): 80% | inhibition of growth at 3 µM (Staphylococcus aureus [2]): 20% | inhibition of growth at 30 µM (Staphylococcus aureus [3]): 90% | inhibition of growth at 30 µM (Bacillus anthracis [4]): 100% | inhibition of growth at 10 µM (Bacillus anthracis [5]): 100% | inhibition of growth at 10 µM (Staphylococcus aureus [6]): 90%

O=C(O)C(Cc1ccccc1)N1C(=O)/C(=C\c2ccc(-c3ccc(Cl)c(Cl)c3)o2)NC1=S (stereo not drawn)
inhibition of growth at 3 µM (Bacillus anthracis [1]): 110% | inhibition of growth at 3 µM (Staphylococcus aureus [2]): 20% | inhibition of growth at 30 µM (Staphylococcus aureus [3]): 100% | inhibition of growth at 30 µM (Bacillus anthracis [4]): 110% | inhibition of growth at 10 µM (Bacillus anthracis [5]): 110% | inhibition of growth at 10 µM (Staphylococcus aureus [6]): 90%

O=C(NS(=O)(=O)C(F)(F)F)C(Cc1ccccc1)N1C(=O)/C(=C\c2ccc(-c3ccc(Cl)c(Cl)c3)o2)NC1=S (stereo not drawn)
inhibition of growth at 3 µM (Bacillus anthracis [1]): 70% | inhibition of growth at 3 µM (Staphylococcus aureus [2]): 0% | inhibition of growth at 30 µM (Staphylococcus aureus [3]): 90% | inhibition of growth at 30 µM (Bacillus anthracis [4]): 100% | inhibition of growth at 10 µM (Bacillus anthracis [5]): 100% | inhibition of growth at 10 µM (Staphylococcus aureus [6]): 80%

NC(=O)C(Cc1ccccc1)N1C(=O)/C(=C\c2ccc(-c3ccc(Cl)c(Cl)c3)o2)NC1=S (stereo not drawn)
inhibition of growth at 3 µM (Bacillus anthracis [1]): 20% | inhibition of growth at 3 µM (Staphylococcus aureus [2]): 0% | inhibition of growth at 30 µM (Staphylococcus aureus [3]): 60% | inhibition of growth at 30 µM (Bacillus anthracis [4]): 90% | inhibition of growth at 10 µM (Bacillus anthracis [5]): 90% | inhibition of growth at 10 µM (Staphylococcus aureus [6]): 30%

O=C(O)C(Cc1ccccc1)N1C(=O)/C(=C\c2ccc(-c3cccc(Cl)c3)o2)NC1=S (stereo not drawn)
inhibition of growth at 3 µM (Bacillus anthracis [1]): 10% | inhibition of growth at 3 µM (Staphylococcus aureus [2]): 0% | inhibition of growth at 30 µM (Staphylococcus aureus [3]): 10% | inhibition of growth at 30 µM (Bacillus anthracis [4]): 90% | inhibition of growth at 10 µM (Bacillus anthracis [5]): 0% | inhibition of growth at 10 µM (Staphylococcus aureus [6]): 0%
